US20230256102A1, “COMPOSITES AND USES THEREOF” (YISSUM RESEARCH DEVELOPMENT COMPANY OF THE HEBREW …, priority 2019, published 2023)
Square brackets hold non-standard residues; d marks the D form. Peptide text beside a SMILES is read from it. * marks the point of attachment. Palmitoyl = CCCCCCCCCCCCCCCC(=O)*

Experiments:
[1] = tested on: MRSA cells; assay: Mixing leucine-lysine random peptide mixtures and copper ions assay; type: cell-based, Staphylococcus aureus; conditions: 400 ppm copper sulfate, 6 hours
Protocol: Mixing Leucine-Lysine random peptide mixtures and copper ions assay: MRSA cells were grown as described in order to prepare a bacterial suspension with O.D.600 nm of 0.1. […] After mixing by vortex, a 1 mL sample was taken for O.D. measurement and the remaining 1 mL sample was incubated for 6 hours at 37° C., 100 RPM. After this time, the O.D. was re-measured and the percentage growth was calculated according to the equation: […]

[2] = tested on: Xanthomonas campestris pv. campestris (Xcc) ATCC 33913; assay: Minimal inhibitory concentration (MIC) assay; type: cell-based; conditions: for Average MIC / MIC value: 24 h, 28° C.; for Average MIC: ND = non-detected at tested concentrations (up to 200 μg/ml); for inhibitory activity in MIC assay (in words): highest concentration tested 200 μg/ml
Protocol: Bacterial strains and growth conditions: The bacterial strains used in this study are detailed in Table 2. Unless stated otherwise, all strains were grown on nutrient agar (NA, Difco) or nutrient broth (NB, Difco), except Pst that was grown on Kings B agar plates and NB. All strains were grown at 28° C. for 48 h. All bacterial cells used in this study were stored in 25% glycerol at −80° C.
Minimal inhibitory concentration (MIC) assay: MIC values were determined by broth microdilution in sterile 96-flat bottom well plates (Corning 3650) as described by Hayouka et al. (2013). Briefly, Xcc cells were grown for 24 h in NB at 28° C., with shaking (180 rpm) and re-suspended in fresh NB to reach an OD600 nm of 0.1 (˜10^8 CFU/ml) that was measured using a Genesys 10 uv spectrophotometer (ThermoSpectronic). One hundred microliter-aliquots of Xcc cells were added to 100 μl of NB medium containing peptides/lipopeptides at various concentrations. Bacterial growth was determined after incubation of 24 h at 28° C. by measurement of the optical density (OD595 nm), using a Tecan infinite Pro Plate reader. […] The highest concentration tested was 200 μg/ml. Each experiment was carried out at least three times, with three replicates per strain/concentration combination in each experiment.

| Compound | Average MIC [2] | further results |
| --- | --- | --- |
| O=S(=O)([O-])[O-].[Cu+2] [copper sulfate] | – | growth of MRSA lower than the control [1]: ~15% |
| CCCCCCCCCCCCCCCC(=O)N[C@H](CCCCN)C(=O)N[C@H](CCCCN)C(=O)N[C@H](CCCCN)C(=O)N[C@H](CCCCN)C(=O)N[C@H](CCCCN)C(N)=O [lipopeptide #1, p-kkkkk] (Palmitoyl-[dK][dK][dK][dK][dK]-NH2) | 6 µg/mL | – |
| CCCCCCCCCCCCCCCC(=O)N[C@H](CCCCN)C(=O)N[C@H](CCCCN)C(=O)N[C@H](CCCCN)C(=O)N[C@H](CCCCN)C(=O)N[C@@H](Cc1ccccc1)C(N)=O [lipopeptide #2, p-kkkkF] (Palmitoyl-[dK][dK][dK][dK]F-NH2) | 6 µg/mL | – |
| CCCCCCCCCCCCCCCC(=O)N[C@H](CCCCN)C(=O)N[C@H](CCCCN)C(=O)N[C@H](CCCCN)C(=O)N[C@@H](Cc1ccccc1)C(=O)N[C@H](CCCCN)C(N)=O [lipopeptide #3, p-kkkFk] (Palmitoyl-[dK][dK][dK]F[dK]-NH2) | 4 µg/mL | – |
| CCCCCCCCCCCCCCCC(=O)N[C@H](CCCCN)C(=O)N[C@H](CCCCN)C(=O)N[C@@H](Cc1ccccc1)C(=O)N[C@H](CCCCN)C(=O)N[C@H](CCCCN)C(N)=O [lipopeptide #4, p-kkFkk] (Palmitoyl-[dK][dK]F[dK][dK]-NH2) | 6 µg/mL | – |
| CCCCCCCCCCCCCCCC(=O)N[C@H](CCCCN)C(=O)N[C@@H](Cc1ccccc1)C(=O)N[C@H](CCCCN)C(=O)N[C@H](CCCCN)C(=O)N[C@H](CCCCN)C(N)=O [lipopeptide #5, p-kFkkk] (Palmitoyl-[dK]F[dK][dK][dK]-NH2) | 6 µg/mL | – |
| CCCCCCCCCCCCCCCC(=O)N[C@@H](Cc1ccccc1)C(=O)N[C@H](CCCCN)C(=O)N[C@H](CCCCN)C(=O)N[C@H](CCCCN)C(=O)N[C@H](CCCCN)C(N)=O [lipopeptide #6, p-Fkkkk] (Palmitoyl-F[dK][dK][dK][dK]-NH2) | – | MIC value [2]: 12 µg/mL |
| CCCCCCCCCCCCCCCC(=O)N[C@H](CCCCN)C(=O)N[C@H](CCCCN)C(=O)N[C@H](CCCCN)C(=O)N[C@@H](Cc1ccccc1)C(=O)N[C@@H](Cc1ccccc1)C(N)=O [lipopeptide #7, p-kkkFF] (Palmitoyl-[dK][dK][dK]FF-NH2) | 14 µg/mL | – |
| CCCCCCCCCCCCCCCC(=O)N[C@H](CCCCN)C(=O)N[C@H](CCCCN)C(=O)N[C@@H](Cc1ccccc1)C(=O)N[C@H](CCCCN)C(=O)N[C@@H](Cc1ccccc1)C(N)=O [lipopeptide #8, p-kkFkF] (Palmitoyl-[dK][dK]F[dK]F-NH2) | 6 µg/mL | – |
| CCCCCCCCCCCCCCCC(=O)N[C@H](CCCCN)C(=O)N[C@@H](Cc1ccccc1)C(=O)N[C@H](CCCCN)C(=O)N[C@H](CCCCN)C(=O)N[C@@H](Cc1ccccc1)C(N)=O [lipopeptide #9, p-kFkkF] (Palmitoyl-[dK]F[dK][dK]F-NH2) | 5 µg/mL | – |
| CCCCCCCCCCCCCCCC(=O)N[C@@H](Cc1ccccc1)C(=O)N[C@H](CCCCN)C(=O)N[C@H](CCCCN)C(=O)N[C@H](CCCCN)C(=O)N[C@@H](Cc1ccccc1)C(N)=O [lipopeptide #10, p-FkkkF] (Palmitoyl-F[dK][dK][dK]F-NH2) | 6 µg/mL | – |
| CCCCCCCCCCCCCCCC(=O)N[C@H](CCCCN)C(=O)N[C@H](CCCCN)C(=O)N[C@@H](Cc1ccccc1)C(=O)N[C@@H](Cc1ccccc1)C(=O)N[C@H](CCCCN)C(N)=O [lipopeptide #11, p-kkFFk] (Palmitoyl-[dK][dK]FF[dK]-NH2) | 6 µg/mL | – |
| CCCCCCCCCCCCCCCC(=O)N[C@H](CCCCN)C(=O)N[C@@H](Cc1ccccc1)C(=O)N[C@H](CCCCN)C(=O)N[C@@H](Cc1ccccc1)C(=O)N[C@H](CCCCN)C(N)=O [lipopeptide #12, p-kFkFk] (Palmitoyl-[dK]F[dK]F[dK]-NH2) | 12 µg/mL | – |
| CCCCCCCCCCCCCCCC(=O)N[C@@H](Cc1ccccc1)C(=O)N[C@H](CCCCN)C(=O)N[C@H](CCCCN)C(=O)N[C@@H](Cc1ccccc1)C(=O)N[C@H](CCCCN)C(N)=O [lipopeptide #13, p-FkkFk] (Palmitoyl-F[dK][dK]F[dK]-NH2) | 6 µg/mL | – |
| CCCCCCCCCCCCCCCC(=O)N[C@H](CCCCN)C(=O)N[C@@H](Cc1ccccc1)C(=O)N[C@@H](Cc1ccccc1)C(=O)N[C@H](CCCCN)C(=O)N[C@H](CCCCN)C(N)=O [lipopeptide #14, p-kFFkk] (Palmitoyl-[dK]FF[dK][dK]-NH2) | 8 µg/mL | – |
| CCCCCCCCCCCCCCCC(=O)N[C@@H](Cc1ccccc1)C(=O)N[C@H](CCCCN)C(=O)N[C@@H](Cc1ccccc1)C(=O)N[C@H](CCCCN)C(=O)N[C@H](CCCCN)C(N)=O [lipopeptide #15, p-FkFkk] (Palmitoyl-F[dK]F[dK][dK]-NH2) | 10 µg/mL | – |
| CCCCCCCCCCCCCCCC(=O)N[C@@H](Cc1ccccc1)C(=O)N[C@@H](Cc1ccccc1)C(=O)N[C@H](CCCCN)C(=O)N[C@H](CCCCN)C(=O)N[C@H](CCCCN)C(N)=O [lipopeptide #16, p-FFkkk] (Palmitoyl-FF[dK][dK][dK]-NH2) | – | MIC value [2]: 50 µg/mL |
| CCCCCCCCCCCCCCCC(=O)N[C@H](CCCCN)C(=O)N[C@H](CCCCN)C(=O)N[C@@H](Cc1ccccc1)C(=O)N[C@@H](Cc1ccccc1)C(=O)N[C@@H](Cc1ccccc1)C(N)=O [lipopeptide #17, p-kkFFF] (Palmitoyl-[dK][dK]FFF-NH2) | 50 µg/mL | – |
| CCCCCCCCCCCCCCCC(=O)N[C@H](CCCCN)C(=O)N[C@@H](Cc1ccccc1)C(=O)N[C@H](CCCCN)C(=O)N[C@@H](Cc1ccccc1)C(=O)N[C@@H](Cc1ccccc1)C(N)=O [lipopeptide #18, p-kFkFF] (Palmitoyl-[dK]F[dK]FF-NH2) | 50 µg/mL | – |
| CCCCCCCCCCCCCCCC(=O)N[C@@H](Cc1ccccc1)C(=O)N[C@H](CCCCN)C(=O)N[C@H](CCCCN)C(=O)N[C@@H](Cc1ccccc1)C(=O)N[C@@H](Cc1ccccc1)C(N)=O [lipopeptide #19, p-FkkFF] (Palmitoyl-F[dK][dK]FF-NH2) | – | MIC value [2]: 38 µg/mL |
| CCCCCCCCCCCCCCCC(=O)N[C@H](CCCCN)C(=O)N[C@@H](Cc1ccccc1)C(=O)N[C@@H](Cc1ccccc1)C(=O)N[C@H](CCCCN)C(=O)N[C@@H](Cc1ccccc1)C(N)=O [lipopeptide #20, p-kFFkF] (Palmitoyl-[dK]FF[dK]F-NH2) | 100 µg/mL | – |
| CCCCCCCCCCCCCCCC(=O)N[C@@H](Cc1ccccc1)C(=O)N[C@H](CCCCN)C(=O)N[C@@H](Cc1ccccc1)C(=O)N[C@H](CCCCN)C(=O)N[C@@H](Cc1ccccc1)C(N)=O [lipopeptide #21, p-FkFkF] (Palmitoyl-F[dK]F[dK]F-NH2) | 38 µg/mL | – |
| CCCCCCCCCCCCCCCC(=O)N[C@H](CCCCN)C(=O)N[C@@H](Cc1ccccc1)C(=O)N[C@@H](Cc1ccccc1)C(=O)N[C@@H](Cc1ccccc1)C(=O)N[C@H](CCCCN)C(N)=O [lipopeptide #23, p-kFFFk] (Palmitoyl-[dK]FFF[dK]-NH2) | 100 µg/mL | – |
| p-FFFkk [lipopeptide #26] | – | inhibitory activity in MIC assay (in words) [2]: not active |
| p-FFkFk [lipopeptide #25] | – | inhibitory activity in MIC assay (in words) [2]: no inhibitory activity |
| p-FFkkF [lipopeptide #22] | – | inhibitory activity in MIC assay (in words) [2]: no inhibitory activity |
| p-FkFFk [lipopeptide #24] | – | inhibitory activity in MIC assay (in words) [2]: no inhibitory activity |
